In patent publication US20260184725A1, “CYCLIC 2-AMINOPYRIMIDINE COMPOUND AND PHARMACEUTICAL COMPOSITION AND USE THEREOF” (SHANGHAI INSTITUTE OF ORGANIC CHEMISTRY, CHINESE ACADEMY OF …, priority 2023, published 2026):
Read-outs that look alike come from different tables or passages of the source.

What was measured:
BaF3 parent cell = assay: CCK-8 cell proliferation, BaF3 parent cell; format: cell-based; conditions: Mus musculus, read-out: Average value of IC50 of inhibition against cells growth, BaF3 parent cell
Description: (§1) Ba/F3 cells were obtained from Deutsche Sammlung von Mikroorganismen und Zellkulturen GmbH (DSMZ). Ba/F3 cells stably expressing EGFR19del/T790M/C797S or EGFR L858R/T790M/C797S were generated by infecting parental cells with corresponding retroviruses. PC-9-OR was a tumor cell model obtained by simultaneously knocking in T790M and C797S mutations into 19del-activating mutation-dependent PC-9 tumor cells using CRISPR technology. This model, which proliferated dependent on EGFR19del/T790M/C797S resistance mutation, was used to evaluate the inhibitory activity of compounds against EGFR19del/T790M/C797S resistance mutants (Cancer Science. 2022; 113:709-720). All cells used in the study were verified by short tandem repeat (STR) analysis conducted by Genesky.
(§2) Tumor cell viability was assessed using a CCK-8 cell counting kit (A311-01/02, Vazyme, Nanjing, China). Cells were seeded at a density of 3000 cells per well into 96-well plates and cultured overnight. Subsequently, the cells were treated with compounds of different concentrations and incubated for 72 hours. After 72 hours, 10 μL of CCK-8 solution was added to each well. The plates were then returned to the incubator and incubated at 37° C. for 2 hours. The absorbance was measured at 450 nm using a microplate reader. A calibration curve was constructed using data obtained from wells containing known numbers of viable cells.

[1] = biological target: BaF3-EGFR (19del/T790M/C797S) (Homo sapiens, UniProt P00533, T790M/C797S, cells depend on it, form not given); assay: CCK-8 cell proliferation, BaF3-EGFR(19del/T790M/C797S); format: cell-based; conditions: CCK-8, 72 hours; read-out: Average value of IC50 of inhibition against EGFR-mutant cells growth, BaF3-EGFR (19del/T790M/C797S)
Method: (§3) Ba/F3 cells were obtained from Deutsche Sammlung von Mikroorganismen und Zellkulturen GmbH (DSMZ). […] All cells used in the study were verified by short tandem repeat (STR) analysis conducted by Genesky.
as §2

[2] = biological target: BaF3-EGFR (L858R/T790M/C797S) (Homo sapiens, UniProt P00533, T790M/C797S/L858R, cells depend on it); assay: CCK-8 cell proliferation, BaF3-EGFR(L858R/T790M/C797S); format: cell-based; conditions: CCK-8, 72 hours; read-out: Average value of IC50 of inhibition against EGFR-mutant cells growth, BaF3-EGFR (L858R/T790M/C797S)
Method: as §3, §2

[3] = system: PC-9-OR (19del/T790M/C797S); assay: CCK-8 cell proliferation, PC-9-OR; format: cell-based; conditions: PC9-OR, read-out: Average value of IC50 of inhibition against EGFR-mutant cells growth, PC-9-OR (19del/T790M/C797S)
Description: as §1, §2

EGFR^WT = biological target: T1, EGFR^WT (Homo sapiens, UniProt P00533); assay: ELISA kinase activity inhibition, wild-type EGFR; format: biochemical; conditions: ATP 5 μM, read-out: The average IC50 value (nM) for inhibiting the activity of different tyrosine kinases, EGFR^WT
T1 construct: purchased Eurofins
Method: (§4) EGFR (WT) is a wild-type epidermal growth factor receptor.
(§5) Enzyme-Linked Immunosorbent Assay (ELISA) was used to detect the inhibitory effect of compounds on kinase activity.
(§6) The main experimental steps were as follows: Enzyme reaction substrate Poly (Glu, Tyr)4:1 was diluted with potassium free PBS (10 mM sodium phosphate buffer, 150 mM NaCl, pH 7.2-7.4) to 20 μg/mL, and reacted at 37° C. for 12 hours to 16 hours to coat the enzyme-linked immunosorbent assay plate. ATP solution (final concentration 5 μM) diluted with reaction buffer (50 mM HEPES pH 7.4, 50 mM MgCl2, 0.5 mM MnCl2, 0.2 mM Na3VO4, 1 mM DTT) was added to each well, followed by the test compound or solvent control, then the kinase reaction was initiated and the plate was shaken at 37° C. for 1 hour. The plate was washed three times with T-PBS, then added antibody PY99. The plate was shaken at 37° C. for 0.5 hours. After washing the plate with T-PBS, added horseradish peroxidase-labeled IgG and shaken at 37° C. for 0.5 hours. After washing the plate again, added 2 mg/mL of OPD colorimetric solution and incubated at 25° C. in the dark for 1 minutes to 10 minutes. […] The IC50 values were obtained from the inhibition curve analysis.

EGFR^L858R/T790M/C797S = EGFR^L858R/T790M/C797S (Homo sapiens, UniProt P00533, C797S/L858R/T790M); assay: ELISA kinase activity inhibition, EGFR L858R/T790M/C797S; format: biochemical; conditions: ATP 5 μM, read-out: The average IC50 value (nM) for inhibiting the activity of different tyrosine kinases, EGFR^L858R/T790M/C797S
Method: as §5, §6

EGFR^19del/T790M/C797S = biological target: T2, EGFR^19del/T790M/C797S (Homo sapiens, UniProt P00533, T790M/C797S, form not given); assay: ELISA kinase activity inhibition, EGFR 19del/T790M/C797S; format: biochemical; conditions: ATP 5 μM, read-out: The average IC50 value (nM) for inhibiting the activity of different tyrosine kinases, EGFR^19del/T790M/C797S
T2 construct: fused on or other part: Probably a GST tag on the cytoplasmic fragment, as in the vendor's product
Method: as §4, §5, §6

[4] = Pharmacokinetic parameters in rats; format: in vivo; conditions: male, Sprague-Dawley, plasma, rat
Method: Sprague-Dawley rats (males, 3 per group), weighing 180 g to 220 g, were administered test compounds intravenously and orally at doses of 1 mg/kg and 5 mg/kg, respectively. The compounds were dissolved in a mixed solvent (5% DMSO+10% Solutol+85% PBS) for intravenous injection. 0.5% CMC-Na solution (800 cps to 1200 cps) was used as a suspension agent for oral administration. At designated time points, 0.2 mL of blood samples were collected via the jugular vein and placed into tubes containing K2-EDTA, stored on ice, and then centrifuged. Sampling intervals for the injection group were 0.083, 0.25, 0.5, 1, 2, 4, 8, and 24 hours, while for the oral group, sampling intervals were 0.25, 0.5, 1, 2, 4, 6, 8, and 24 hours. The blood samples were centrifuged at 6800 g for 6 minutes at 2° C. to 8° C. within 1 hour after collection and stored frozen at approximately −80° C. Subsequently, 200 μL of MeOH was used to precipitate 20 μL of plasma samples containing 100 ng/mL IS. The mixture was vortexed for 1 minute and then centrifuged at 18000 g for 7 minutes. 200 μL of the supernatant was transferred to a 96-well plate, and 1 μL of the supernatant sample was injected for LC-MS/MS analysis. Finally, Phoenix WinNonlin7.0 software was used to calculate the pharmacokinetic (PK) parameters.

Sequence of BaF3-EGFR (L858R/T790M/C797S) (P00533 whole entry T790M/C797S/L858R): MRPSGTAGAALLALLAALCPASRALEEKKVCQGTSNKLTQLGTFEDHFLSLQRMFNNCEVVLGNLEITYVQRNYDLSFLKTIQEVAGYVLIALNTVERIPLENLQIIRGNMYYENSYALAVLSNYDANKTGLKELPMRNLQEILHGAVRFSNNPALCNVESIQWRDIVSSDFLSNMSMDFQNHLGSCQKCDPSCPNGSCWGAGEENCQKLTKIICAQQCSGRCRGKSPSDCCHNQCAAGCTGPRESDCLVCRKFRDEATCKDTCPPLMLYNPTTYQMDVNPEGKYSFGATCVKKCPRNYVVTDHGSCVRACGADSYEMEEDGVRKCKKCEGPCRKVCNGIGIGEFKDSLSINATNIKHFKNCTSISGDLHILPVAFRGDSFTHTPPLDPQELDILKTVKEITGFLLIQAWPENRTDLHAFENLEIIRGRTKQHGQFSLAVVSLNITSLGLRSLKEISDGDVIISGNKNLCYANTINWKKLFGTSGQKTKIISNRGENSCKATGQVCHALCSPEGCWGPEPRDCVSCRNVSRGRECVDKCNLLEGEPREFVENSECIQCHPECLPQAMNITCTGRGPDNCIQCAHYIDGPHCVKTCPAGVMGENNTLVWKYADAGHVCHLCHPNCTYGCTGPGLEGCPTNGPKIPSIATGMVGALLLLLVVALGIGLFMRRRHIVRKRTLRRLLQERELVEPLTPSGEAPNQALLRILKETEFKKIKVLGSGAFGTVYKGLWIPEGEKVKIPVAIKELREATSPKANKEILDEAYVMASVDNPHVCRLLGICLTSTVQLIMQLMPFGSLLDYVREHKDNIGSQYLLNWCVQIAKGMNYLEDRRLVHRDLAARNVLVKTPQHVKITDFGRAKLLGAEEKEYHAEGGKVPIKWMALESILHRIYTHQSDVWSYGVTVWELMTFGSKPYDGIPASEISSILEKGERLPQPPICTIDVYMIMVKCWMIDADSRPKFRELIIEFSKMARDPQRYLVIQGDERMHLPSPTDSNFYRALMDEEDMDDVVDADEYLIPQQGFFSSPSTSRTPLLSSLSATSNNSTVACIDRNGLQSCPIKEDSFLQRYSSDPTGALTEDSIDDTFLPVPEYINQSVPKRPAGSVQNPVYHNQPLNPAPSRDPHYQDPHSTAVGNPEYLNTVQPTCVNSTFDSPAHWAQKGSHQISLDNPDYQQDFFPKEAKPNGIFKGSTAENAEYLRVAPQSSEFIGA
Sequence of EGFR^L858R/T790M/C797S (P00533 25-1210 T790M/C797S/L858R): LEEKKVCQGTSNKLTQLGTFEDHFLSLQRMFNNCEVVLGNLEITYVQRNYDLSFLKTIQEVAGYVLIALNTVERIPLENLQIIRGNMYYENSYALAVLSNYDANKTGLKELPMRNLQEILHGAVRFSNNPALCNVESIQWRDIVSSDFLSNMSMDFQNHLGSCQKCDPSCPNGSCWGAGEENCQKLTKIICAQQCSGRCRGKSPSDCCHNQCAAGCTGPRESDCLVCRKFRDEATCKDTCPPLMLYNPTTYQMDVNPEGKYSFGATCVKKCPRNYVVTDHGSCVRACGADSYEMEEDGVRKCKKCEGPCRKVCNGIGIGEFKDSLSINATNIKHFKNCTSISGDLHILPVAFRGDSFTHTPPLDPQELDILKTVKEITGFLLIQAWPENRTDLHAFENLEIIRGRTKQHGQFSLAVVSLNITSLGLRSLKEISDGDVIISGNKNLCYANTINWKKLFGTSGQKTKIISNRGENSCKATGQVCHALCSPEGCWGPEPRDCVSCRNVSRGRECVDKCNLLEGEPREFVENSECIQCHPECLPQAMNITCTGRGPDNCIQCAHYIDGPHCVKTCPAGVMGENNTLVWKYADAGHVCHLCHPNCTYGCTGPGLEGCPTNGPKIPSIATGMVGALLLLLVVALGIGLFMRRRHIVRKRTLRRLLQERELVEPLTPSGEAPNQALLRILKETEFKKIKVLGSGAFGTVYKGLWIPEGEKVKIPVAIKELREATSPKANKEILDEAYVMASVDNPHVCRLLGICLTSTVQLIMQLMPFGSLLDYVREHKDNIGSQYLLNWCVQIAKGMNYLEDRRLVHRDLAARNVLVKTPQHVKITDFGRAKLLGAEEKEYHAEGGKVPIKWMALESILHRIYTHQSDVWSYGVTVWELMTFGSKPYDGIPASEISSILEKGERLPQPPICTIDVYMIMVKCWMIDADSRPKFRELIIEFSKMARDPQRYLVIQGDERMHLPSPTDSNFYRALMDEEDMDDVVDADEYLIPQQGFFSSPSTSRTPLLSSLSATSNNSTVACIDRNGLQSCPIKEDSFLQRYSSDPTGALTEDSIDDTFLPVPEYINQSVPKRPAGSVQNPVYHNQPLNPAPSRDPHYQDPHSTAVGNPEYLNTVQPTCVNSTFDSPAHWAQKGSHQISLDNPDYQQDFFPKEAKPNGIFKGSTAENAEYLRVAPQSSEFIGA
T2 sequence (P00533 with tags, fused parts or gaps DEL746-750/T790M/C797S, form open): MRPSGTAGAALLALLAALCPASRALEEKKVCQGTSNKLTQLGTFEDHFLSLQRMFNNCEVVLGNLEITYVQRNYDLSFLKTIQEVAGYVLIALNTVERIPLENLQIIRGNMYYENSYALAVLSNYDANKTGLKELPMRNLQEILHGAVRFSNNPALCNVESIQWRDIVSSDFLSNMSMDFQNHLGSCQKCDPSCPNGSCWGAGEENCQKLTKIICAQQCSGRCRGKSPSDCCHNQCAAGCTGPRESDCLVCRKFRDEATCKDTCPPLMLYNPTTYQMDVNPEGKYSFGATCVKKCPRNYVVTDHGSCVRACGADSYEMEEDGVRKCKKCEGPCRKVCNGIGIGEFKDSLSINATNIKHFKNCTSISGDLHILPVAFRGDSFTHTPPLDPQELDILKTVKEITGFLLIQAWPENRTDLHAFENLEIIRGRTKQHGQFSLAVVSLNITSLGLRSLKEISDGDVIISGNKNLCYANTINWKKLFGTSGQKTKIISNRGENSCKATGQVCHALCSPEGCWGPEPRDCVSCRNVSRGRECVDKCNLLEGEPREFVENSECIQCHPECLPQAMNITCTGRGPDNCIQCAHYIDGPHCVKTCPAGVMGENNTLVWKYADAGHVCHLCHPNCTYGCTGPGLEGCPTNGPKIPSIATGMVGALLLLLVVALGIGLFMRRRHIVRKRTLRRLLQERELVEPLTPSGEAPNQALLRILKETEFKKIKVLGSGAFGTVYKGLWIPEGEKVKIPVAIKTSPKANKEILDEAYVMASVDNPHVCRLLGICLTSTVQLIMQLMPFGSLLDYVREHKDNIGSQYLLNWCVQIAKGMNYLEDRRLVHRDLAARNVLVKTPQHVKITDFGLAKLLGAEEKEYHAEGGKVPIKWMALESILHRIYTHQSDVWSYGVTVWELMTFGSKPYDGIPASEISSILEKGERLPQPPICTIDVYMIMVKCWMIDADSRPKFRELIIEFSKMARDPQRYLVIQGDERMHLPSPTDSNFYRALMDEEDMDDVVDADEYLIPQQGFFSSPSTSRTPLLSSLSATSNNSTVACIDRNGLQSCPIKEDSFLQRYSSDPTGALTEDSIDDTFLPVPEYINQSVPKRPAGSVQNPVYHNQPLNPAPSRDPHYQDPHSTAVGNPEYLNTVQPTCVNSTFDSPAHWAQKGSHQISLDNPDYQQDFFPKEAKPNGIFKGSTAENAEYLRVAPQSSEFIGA
Sequence of BaF3-EGFR (19del/T790M/C797S) (P00533 with tags, fused parts or gaps DEL746-750/T790M/C797S, form open): as above

Row | Compound | IC50 (BaF3 parent cell; BaF3, 72 h) [nM] | GI50 [1] [nM] | GI50 [2] [nM] | IC50 ([3]; 72 h) [nM] | IC50 (EGFR^WT) [nM] | IC50 (EGFR^L858R/T790M/C797S) [nM] | IC50 (EGFR^19del/T790M/C797S) [nM] | IC50 (BaF3 parent cell; BaF3, CCK-8, 72 hours) [nM] | IC50 ([3]; CCK-8, 72 hours) [nM] | Cmax ([4]; IV 1 mg/kg) [ng/mL] | clearance ([4]; IV 1 mg/kg) [mL/min/kg] | half-life ([4]; IV 1 mg/kg) [h] | Cmax ([4]; PO 5 mg/kg) [ng/mL] | half-life ([4]; PO 5 mg/kg) [h] | bioavailability ([4]; PO 5 mg/kg, read-out: F (oral bioavailability)) [%]
1 | COc1cc(N2CCC(N3CCN(C)CC3)CC2)ccc1Nc1ncc(Cl)c(Nc2ccccc2P(C)(C)=O)n1 [Brigatinib, reference compound] | 1480 | 221 | 777 | 1450 | – | – | – | – | – | – | – | – | – | – | –
2 | CCS(=O)(=O)n1cc2c3ccc(cc31)OCCCn1cc(cn1)-c1cc(ccc1N1CCOCC1)Nc1ncc(Cl)c-2n1 [HC871, (Z)-2^5-Chloro-1^1-(ethylsulfonyl)-4^4-morpholino-1^1H,5^1H-9-oxa-3-aza-1(3,6)-indola-2(4,2)-pyrimidina-5(4,1)-pyrazola-4(1,3)-benzenacyclononaphane] | – | 70 | 74 | – | > 1000 | 4.9 | 6.3 | 217 | 85 | – | – | – | – | – | –
3 | CCS(=O)(=O)n1cc2c3ccc(cc31)OCCCn1cc(cn1)-c1cc(ccc1N1CCOCC1)Nc1nccc-2n1 [HC950, 1^1-ethylsulfonyl-4^6-methyl-4^4-(4-methylpiperazin-1-yl)-1^1H,5^1H-9-oxa-3-aza-1(3,6)-indole-2(4,2)-pyrimidine-5(4,1)-pyrazole-4(1,3)-benzenacyclononaphane] | – | 170 | 336 | – | 111 | 0.4 | 4.3 | 950 | 149 | – | – | – | – | – | –
4 | CCS(=O)(=O)n1cc2c3ccc(cc31)OCCCn1cc(cn1)-c1cc(c(C)cc1N1CCOCC1)Nc1nccc-2n1 [HC950M, (Z)-1^1-Ethylsulfonyl-4^6-methyl-4^4-morpholino-1^1H,5^1H-9-oxa-3-aza-1 (3,6)-indole-2(4,2)-pyrimidine-5(4,1) pyrazol-4(1,3)-benzenacyclononaphane] | – | 86 | 108 | – | 37.6 | 1.9 | 7.3 | 445 | 149 | – | – | – | – | – | –
5 | CCS(=O)(=O)n1cc2c3ccc(cc31)OCCCCn1cc(cn1)-c1cc(ccc1N1CCOCC1)Nc1ncc(Cl)c-2n1 [HC8714, 2^5-Chloro-1^1-Ethylsulfonyl-4^4-morpholino-1^1H,5^1H-10-oxa-3-aza-1(3,6)-Indole-2(4,2)-Pyrimidin-5(4,1)-Pyrazol-4(1,3)-Phenyldecane] | – | 91 | 75 | – | 802 | 9.3 | 2.7 | 274 | 155 | – | – | – | – | – | –
6 | Cc1cc(N2CCOCC2)c2cc1Nc1ncc(Cl)c(n1)-c1c[nH]c3cc(ccc13)OCCCn1cc-2cn1 [HC8990, 2^5-Chloro-4^6-Methyl-4^4-morpholino-1^1H,5^1H-9-oxa-3-aza-1(3,6)-Indole-2(4,2)-Pyrimidin-5(4,1)Pyrazol-4(1,3)-benzenacyclononaphane] | – | 429 | 325 | – | 342 | 1 | 3.4 | 3290 | 531 | – | – | – | – | – | –
7 | CCS(=O)(=O)n1cc2c3ccc(cc31)OCCCn1cc(cn1)-c1cc(c(C)cc1N1CCN(C)CC1)Nc1ncc(Cl)c-2n1 [HC9452, 2^5-chloro-1^1-ethylsulfonyl-4^6-methyl-4^4-(4-methylpiperazin-1-yl)-1^1H,5^1H-9-oxa-3-aza-1(3,6)-indole-2(4,2)-pyrimidine-5(4,1)-pyrazole-4(1,3)-benzenacyclononaphane] | – | 472 | 591 | – | 44.7 | 4.3 | 4.3 | 1790 | 81 | – | – | – | – | – | –
8 | CCS(=O)(=O)n1cc2c3ccc(cc31)OCCCn1cc(cn1)-c1cc(c(OC)cc1N1CCOCC1)Nc1nccc-2n1 [HC9591, (Z)-1^1-Ethylsulfonyl-4^6-methoxy-4^4-morpholin-1^1H,5^1H-9-oxa-3-aza-1 (3,6)-indole-2(4,2)-pyrimidine-5(4,1) pyrazole-4(1,3)-benzenacyclononaphane] | – | 189 | 301 | – | 632 | 2 | 1.7 | 1820 | 269 | 1570 ± 220 | 9.2 ± 2.1 | 7.1 ± 0.95 | 330 ± 56.5 | 8.13 ± 0.08 | 39.6 ± 9
9 | CCS(=O)(=O)n1cc2c3ccc(cc31)OCCCn1cc(cn1)-c1cc(c(OC)cc1N1CCC(N3CCN(C)CC3)CC1)Nc1nccc-2n1 [HC9594, (Z)-1^1-ethylsulfonyl-4^6-methoxy-4^4-(4-methylpiperazin-1-yl) piperidin-1-yl)-1^1H,5^1H-9-oxa-3-aza-1(3,6)-indole-2(4,2)-pyrimidine-5(4,1)-pyrazolol-4(1,3)-benzenacyclononaphane] | – | 1220 | 735 | – | 112 | 2.2 | 1.7 | > 10000 | 925 | – | – | – | – | – | –
